Counter-ions that a name gives are not always drawn. Activity calls are given as the source filed them.
Assays:
[1] = viability loss of HPDE-C7K cells – cell-based, fluorescence, HTS, primary screen (AID 431); type: functional; conditions: Homo sapiens
[2] = Vero E6 cell cytotoxicity, dose response, cytotoxicity control for non-replicating M. tuberculosis project, secondary assay (AID 492998); type: functional, VeroE6; conditions: Vero C1008
[3] = target: T1, Sentrin-specific protease 8 (Homo sapiens, UniProt Q96LD8); type: functional
T1 sequence (Q96LD8 whole entry): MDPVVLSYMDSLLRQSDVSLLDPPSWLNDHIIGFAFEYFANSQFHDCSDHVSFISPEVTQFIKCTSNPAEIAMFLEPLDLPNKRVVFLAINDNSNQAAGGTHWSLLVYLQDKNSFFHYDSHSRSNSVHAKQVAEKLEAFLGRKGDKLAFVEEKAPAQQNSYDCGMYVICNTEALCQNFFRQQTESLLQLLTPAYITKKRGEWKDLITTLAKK

[4] = Luminescence Cell-Based Dose Confirmation HTS to Identify Activators of 5'UTR Stem-Loop Driven Alpha-Synuclein mRNA Translation in H4 Neuroglioblastoma Cells. [Related pubchem assays: 1829 (Project Summary), 1814 (Primary HTS)]; type: functional
cells [5] = type: functional
Nonstructural protein 1 = Nonstructural protein 1 (Influenza A virus, UniProt Q194T2); type: functional, Influenza A virus (A/California/07/2009(H1N1))
[6] = viability of PTEN-deleted HCT116 cells – cell-based, HCT116 PTEN knockout, dose response (AID 1047); type: functional;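 further: HCT116 colon tumor cells with PTEN knocked out; cells exposed to compound for 60 hours before readout; potency for loss of cell viability measured by luminescence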
[7] = HPDE-C7 pancreatic duct cell viability loss – fluorescence, HTS (AID 430); type: functional, cell-based; conditions: Homo sapiens
[8] = THP-1 cell cytotoxicity, dose response, cytotoxicity control for non-replicating M. tuberculosis project (AID 489025); type: functional
Fibrinogen beta chain [9] = target: T2, Fibrinogen beta chain (Homo sapiens, UniProt P02675); experiment: Fluorescence polarization-based biochemical high throughput dose response assay to identify inhibitors that disrupt the binding of a cyclic peptide (Tn7) to the fibrin proteolytic product D-Dimer and fragment E complex [DD(E )].
[10] = target: T1, Sentrin-specific protease 8; type: functional; remark: listed apart in the source
H4 = experiment: Luminescence Cell-Based Dose Response HTS to Identify Activators of 5'UTR Stem-Loop Driven Prion Protein mRNA Translation in H4 Neuroglioblastoma Cells. [Related pubchem assays: 1829 (Project Summary), 1814 (Primary HTS)]; type: functional; conditions: Homo sapiens
[11] = viability of HCT116 lacking mutant beta-catenin – cell-based, human colon tumor, dose response (AID 1045); type: functional;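 further: HCT116 colon tumor cells with beta catenin knocked out; cells exposed to compound for 60 hours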
Fibrinogen beta chain [12] = target: T2, Fibrinogen beta chain; experiment: Fluorescence polarization-based biochemical high throughput dose response assay to identify inhibitors that disrupt the binding of a cyclic peptide (Tn6) to the fibrin proteolytic product D-Dimer and fragment E complex [DD(E )].
[13] = target: NAD-dependent protein deacylase sirtuin-5, mitochondrial (Homo sapiens, UniProt Q9NXA8); experiment: sirtuin-5 deacylation blockers, concentration series – biochemical, fluorescence imaging, cherry-pick, set 5, dose response (AID 720591);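 further: desuccinylation of succinyl peptide AMC substrate read as fluorescence after trypsin release; potency of inhibitors that lower fluorescence and may act on trypsin instead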
[14] = PAX8-dependent cell viability loss – plate reader, dry powder, dose response (AID 743049); type: functional, cell-based
[15] = PAX5 cellular inhibition readout – cell-based, plate reader, dry powder samples, selectivity assay for PAX8 inhibitor project, dose response (AID 743047); type: functional;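 further: HEK293 cells carrying a Pax5 driven CD19 promoter luciferase reporter; potency of inhibitors that lower reporter luminescence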
[16] = COV434 cell viability loss – plate reader, dry powder, SA7, cytotoxicity control for PAX8 inhibitor project, dose response (AID 743145); type: functional, cell-based
[17] = OV-90 cell viability loss – plate reader, dry powder, SA8, PAX8 inhibitor project, dose response (AID 743149); type: functional, cell-based
[18] = COV362 cell viability loss – plate reader, dry powder, SA12, cytotoxicity control for PAX8 inhibitor project, dose response (AID 743144); type: functional, cell-based
[19] = inhibitors acting on PAX2 in cells – cell-based, plate reader, dry powder samples, selectivity assay for PAX8 inhibitor project, dose response (AID 743048); type: functional;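 further: HEK293 cells carrying a WT1 promoter luciferase reporter driven by expressed Pax2; potency is for inhibition of Pax2 driven reporter signal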
Paired box protein Pax-8 = Paired box protein Pax-8 (Homo sapiens, UniProt Q06710); experiment: PAX8 transcriptional activity inhibition in RMG-I – RMG-I cells, luciferase, cherry-pick, dose response (AID 687027); type: functional, cell-based;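 further: luciferase reporter driven by Pax8 target thyroperoxidase promoter measured by SteadyGlo luminescence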
[20] = OVCAR-3 cell viability loss – plate reader, dry powder samples, PAX8 inhibitor project, dose response (AID 743044); type: functional, cell-based
[21] = OVCAR4 cell viability loss – plate reader, dry powder, SA11, cytotoxicity control for PAX8 inhibitor project, dose response (AID 743150); type: functional, cell-based; conditions: OVCAR-4
[22] = target: G-protein coupled receptor 183 (Homo sapiens, UniProt P32249); experiment: SAR confirmation of small molecule antagonists of the EBI2 receptor via a luminescent beta-arrestin assa.; type: functional
cells [23] = type: functional, cell-based; conditions: INS-1E
[24] = rise of 2N DNA cells, HeLa – IC50, dose response (AID 1117349); type: functional, cell-based
[25] = RKO cell viability reduction, dose response, CellTiter-Glo luminescence (AID 1117322); type: functional
[26] = rise of 4N DNA cells, HeLa – IC50, dose response (AID 1117351); type: functional, cell-based
[27] = IC50 of insulin release inhibition, rat insulinoma INS-1E line, 5 mM glucose, cell-based (AID 1117331); type: functional
[28] = SNU-C1 cell viability reduction, dose response, CellTiter-Glo luminescence (AID 1117323); type: functional, cell-based
[29] = CellTiter-Glo luminescence survival assay, SW480 colon tumor line, concentration-response curve, half-maximal inhibitory concentration (AID 1117338); type: functional
[30] = HCT116 cell viability decrease, GSK3B pretreatment – CellTiter-Glo, IC50, dose response (AID 1117339); type: functional; conditions: HCT-116

T2 sequence (P02675 whole entry, the tested form may be a part): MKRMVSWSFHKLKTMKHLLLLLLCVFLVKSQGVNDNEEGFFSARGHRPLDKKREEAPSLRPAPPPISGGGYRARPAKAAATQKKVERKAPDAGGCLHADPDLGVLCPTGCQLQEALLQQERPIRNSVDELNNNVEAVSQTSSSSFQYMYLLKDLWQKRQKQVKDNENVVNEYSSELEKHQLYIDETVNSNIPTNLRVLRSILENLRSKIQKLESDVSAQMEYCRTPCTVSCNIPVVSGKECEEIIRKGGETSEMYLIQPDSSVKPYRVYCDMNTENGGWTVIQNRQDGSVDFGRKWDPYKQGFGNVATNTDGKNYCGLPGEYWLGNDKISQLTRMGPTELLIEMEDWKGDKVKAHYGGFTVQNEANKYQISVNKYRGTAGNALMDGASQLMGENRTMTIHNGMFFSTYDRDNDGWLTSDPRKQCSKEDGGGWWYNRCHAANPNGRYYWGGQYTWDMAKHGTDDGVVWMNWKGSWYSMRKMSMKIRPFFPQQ
Chain of Paired box protein Pax-8 (Q06710 whole entry): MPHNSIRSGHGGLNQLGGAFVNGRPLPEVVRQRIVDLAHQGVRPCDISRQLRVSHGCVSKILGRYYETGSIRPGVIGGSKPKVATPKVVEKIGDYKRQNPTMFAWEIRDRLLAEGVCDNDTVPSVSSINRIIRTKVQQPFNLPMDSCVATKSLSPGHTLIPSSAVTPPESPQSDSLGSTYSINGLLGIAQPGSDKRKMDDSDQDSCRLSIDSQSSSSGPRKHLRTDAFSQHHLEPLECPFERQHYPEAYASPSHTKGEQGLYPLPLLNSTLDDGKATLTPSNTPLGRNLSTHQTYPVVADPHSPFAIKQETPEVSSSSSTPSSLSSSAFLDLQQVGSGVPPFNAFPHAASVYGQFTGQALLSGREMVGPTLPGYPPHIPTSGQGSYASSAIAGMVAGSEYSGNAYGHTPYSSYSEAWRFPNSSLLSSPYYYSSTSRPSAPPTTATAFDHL
Chain of NAD-dependent protein deacylase sirtuin-5, mitochondrial (Q9NXA8 whole entry): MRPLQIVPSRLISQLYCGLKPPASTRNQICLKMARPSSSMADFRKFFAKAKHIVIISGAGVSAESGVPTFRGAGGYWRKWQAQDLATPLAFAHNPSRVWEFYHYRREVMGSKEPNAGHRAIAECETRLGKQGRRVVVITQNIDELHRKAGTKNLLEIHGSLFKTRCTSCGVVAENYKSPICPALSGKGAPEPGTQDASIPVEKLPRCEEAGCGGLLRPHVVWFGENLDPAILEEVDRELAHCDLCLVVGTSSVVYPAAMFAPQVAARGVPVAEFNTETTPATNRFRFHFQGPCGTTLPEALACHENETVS
Chain of G-protein coupled receptor 183 (P32249 whole entry): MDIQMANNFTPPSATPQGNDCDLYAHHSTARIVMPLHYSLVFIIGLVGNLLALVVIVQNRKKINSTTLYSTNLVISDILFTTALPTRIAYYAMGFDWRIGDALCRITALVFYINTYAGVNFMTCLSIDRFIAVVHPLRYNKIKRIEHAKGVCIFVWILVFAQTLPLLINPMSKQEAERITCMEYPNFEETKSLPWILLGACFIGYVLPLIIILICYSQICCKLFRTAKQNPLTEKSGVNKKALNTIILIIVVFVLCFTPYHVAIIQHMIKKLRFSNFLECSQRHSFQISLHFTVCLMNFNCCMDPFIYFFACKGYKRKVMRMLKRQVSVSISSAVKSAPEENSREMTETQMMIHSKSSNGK
Chain of Nonstructural protein 1 (Q194T2 whole entry): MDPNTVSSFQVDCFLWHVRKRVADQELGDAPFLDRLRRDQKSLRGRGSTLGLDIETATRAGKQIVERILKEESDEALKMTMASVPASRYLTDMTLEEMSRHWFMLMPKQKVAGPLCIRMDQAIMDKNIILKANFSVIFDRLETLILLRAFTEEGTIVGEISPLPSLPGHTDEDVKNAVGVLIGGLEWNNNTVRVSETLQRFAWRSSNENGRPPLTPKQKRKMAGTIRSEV

In the case of `N#CC(C#N)=c1ccc2c(c1)NC1(CCCCC1)N=2`, the EC50 [1] is reported as 9.91 µM (active), the CC50 [2] is reported as 15.4 µM (active) and the IC50 [3] is reported as 3.45 µM (active). For the same compound, the EC50 [4] was 1.55 µM (active), the IC50 (cells [5]) was 10.7 µM (active) and the IC50 (Nonstructural protein 1) was 15.6 µM (active). For the same compound, the EC50 [6] was 1.37 µM (active), the EC50 [7] was 6.5 µM (active) and the CC50 [8] was 6.67 µM (active). For the same compound, the IC50 (Fibrinogen beta chain [9]) was > 83.3 µM (inactive), the IC50 [10] was > 100 µM (inactive) and the EC50 (H4) was 5.95 µM (active). For the same compound, the EC50 [11] was 1.23 µM (active) and the IC50 (Fibrinogen beta chain [12]) was 11.3 µM (inactive).
For `C=CCN(c1ccccc1)S(=O)(=O)c1cccc(C(=O)Nc2ccncc2)c1`, the AC50 [13] was > 30 µM (inactive).
For `COc1ccc(NC(=O)Nc2ccc3c(c2)C(=O)N([C@H](C)CO)C[C@H](C)[C@H](CN(C)Cc2ccc(C(F)(F)F)cc2)OCCCC[C@H](C)O3)cc1`, the AC50 [14] was 22.4 µM (active), the AC50 [15] was 22.9 µM (active) and the AC50 [16] was 27.7 µM (active). The AC50 [17] was 23.6 µM (active), the AC50 [18] was 26 µM (active) and the AC50 [19] was 18.4 µM (active). The AC50 (Paired box protein Pax-8) was 9.32 µM (active), the AC50 [20] was 24 µM (active) and the AC50 [21] was 20.4 µM (active).
For `O=C(/C=C/c1ccc(F)cc1)N1CCN(S(=O)(=O)CCc2ccccc2)CC1`, the IC50 [22] was 0.00327 µM (active).
With `CCN(CC)CCCC(C)Nc1c2ccc(Cl)cc2nc2ccc(OC)cc12` (stereo not drawn) [QUINACRINE HYDROCHLORIDE] the IC50 (cells [23]) was > 33.3 µM (inactive), the IC50 [24] was 2.16 µM (active) and the IC50 [25] was 3.42 µM (active). For the same compound, the IC50 [26] was > 10 µM (inactive), the IC50 [27] was 4.07 µM (active) and the IC50 [28] was 3.84 µM (active). The IC50 [29] was 3.6 µM (active) and the IC50 [30] was 4.48 µM (active).
